Assay results published in ChEMBL document CHEMBL2375293, “Identification of benzofurano[3,2-d]pyrimidin-2-ones, a new series of HIV-1 nucleotide-competing reverse transcriptase inhibitors” (Bioorg Med Chem Lett, 2013).
Values after ≈ are worked out from the molar mass of the structure shown.

How the values were obtained:
[1] = Cytotoxicity against human C8166 cells assessed as inhibition of cell viability after 3 days by MTT assay; format: cell-based
[2] = Antiviral activity against wild type HIV1 BH10 infected in human C8166 cells after 3 days by luciferase reporter gene assay; format: functional, cell-based, Human immunodeficiency virus type 1 BH10; conditions: Human immunodeficiency virus 1, C8166, 72 h
[3] = Inhibition of HIV1 BH10 reverse transcriptase using poly(rA)/oligo(dT)15 as substrate after 60 mins by fluorescence assay; design: species or system Human immunodeficiency virus type 1 BH10
[4] = Cytotoxicity against human C8166 cells assessed as inhibition of cell viability at CC50 after 3 days by MTT assay; format: cell-based; conditions: read-out: INH
[5] = Apparent permeability across human Caco2 cells at 10 uM by LC-MS/MS analysis; format: ADME, cell-based; conditions: Caco-2
[6] = Solubility of the compound in phosphate buffer at pH 2 after 24 hrs by LC-MS analysis; format: physicochemical
[7] = Solubility of the compound in phosphate buffer at pH 6.8 after 24 hrs by LC-MS analysis; format: physicochemical
[8] = tested on: Human immunodeficiency virus type 1 BH10; experiment: Selectivity ratio of EC50 for HIV1 BH10 harboring reverse transcriptase K103N/Y181C double mutant to EC50 for wild type HIV1 BH10; format: functional
[9] = tested on: Human immunodeficiency virus type 1 BH10; experiment: Selectivity ratio of EC50 for HIV1 BH10 harboring reverse transcriptase Y115F/M184V double mutant to EC50 for wild type HIV1 BH10; format: functional
[10] = tested on: Human immunodeficiency virus type 1 BH10; experiment: Selectivity ratio of EC50 for HIV1 BH10 harboring reverse transcriptase M184V mutant to EC50 for wild type HIV1 BH10; format: functional
[11] = tested on: Human immunodeficiency virus type 1 BH10; experiment: Selectivity ratio of EC50 for HIV1 BH10 harboring reverse transcriptase K65R mutant to EC50 for wild type HIV1 BH10; format: functional
[12] = tested on: Human immunodeficiency virus type 1 BH10; experiment: Selectivity ratio of EC50 for HIV1 BH10 harboring reverse transcriptase Y115F mutant to EC50 for wild type HIV1 BH10; format: functional
[13] = Ratio of EC50 for wild type HIV1 BH10 infected in human C8166 cells in presence of serum to EC50 for wild type HIV1 BH10 infected in human C8166 cells in absence of serum; format: functional, Human immunodeficiency virus type 1 BH10
[14] = Ratio of CC50 for human C8166 cells to EC50 for wild type HIV1 BH10 infected in human C8166 cells
[15] = Half life in human liver microsomes at 1 uM by LC-MS/MS analysis; format: ADME, Microsome
[16] = Half life in Sprague-Dawley rat liver microsomes at 1 uM by LC-MS/MS analysis; format: ADME, Microsome
[17] = n-Octanol-phosphate buffer partition coefficient, log D of the compound at 0.5 mg after 24 hrs by LC-MS analysis; format: physicochemical

SMILES	EC50 [2] [nM]	IC50 [3] [nM]	CC50 at 72 h [1] [µM]	other results
O=c1nc(-c2ccccc2)c2oc3ccc(Cl)cc3c2n1CCN1CCC(F)(F)C1	2900	320	> 4.5	
CCNCC(=O)Nc1ccc(-c2nc(=O)n(CCOC)c3c2oc2ccc(-c4ccc5c(c4)CCN(C)C5)cc23)cc1	30	4.2	4.8	Papp at 10 µM [5]: < 0.1 ×10⁻⁶ cm/s; solubility at 24 h [6]: > 822 µg/mL; solubility at 24 h [7]: 650 µg/mL (≈ 1150 µM); Ratio EC50 [8]: 1.1; Ratio EC50 [9]: 3.3; Ratio EC50 [10]: 1.1; Ratio EC50 [11]: 0.1; Ratio EC50 [12]: 2; Ratio EC50 [13]: 1.5; Ratio CC50/EC50 [14]: 137; half-life at 1 µM [15]: 93 min; half-life at 1 µM [16]: 140 min; logD at 24 h [17]: 2.4
COCCn1c(=O)nc(-c2ccc(N3CCNCC3)cc2)c2oc3ccc(Cl)cc3c21	175	10	2.7	
COCCn1c(=O)nc(-c2cnc(N3CCN(C)CC3)nc2)c2oc3ccccc3c21	690	155	> 9.5	cytotoxicity at 72 h [4]: 40%
COCCn1c(=O)nc(-c2ccnc(N3CCN(C)CC3)c2)c2oc3ccc(Br)cc3c21		> 5000		
O=c1nc(-c2ccccc2)c2oc3ccccc3c2n1CCN1CCCC1	11000	4200	18	
O=c1nc(-c2ccccc2)c2oc3ccc(Cl)cc3c2n1CCN1CCOCC1		6500		
O=c1nc(-c2ccccc2)c2oc3ccc(Cl)cc3c2n1CCN1CCCC1	3700	590	> 7.3	cytotoxicity at 72 h [4]: 6%
CN1CCc2cc(-c3ccc4oc5c(-c6ccccc6)nc(=O)n(CCN6CCCC6C(N)=O)c5c4c3)ccc2C1 (centres undefined)	52	5.9		Papp at 10 µM [5]: 0.17 ×10⁻⁶ cm/s; solubility at 24 h [6]: 781 µg/mL (≈ 1430 µM); solubility at 24 h [7]: 725 µg/mL (≈ 1320 µM); Ratio EC50 [8]: 1.7; Ratio EC50 [9]: 14.2; Ratio EC50 [10]: 5.8; Ratio EC50 [11]: 0.3; Ratio EC50 [13]: 8.4; Ratio CC50/EC50 [14]: >127; half-life at 1 µM [15]: 73 min; half-life at 1 µM [16]: 60 min; logD at 24 h [17]: 3
CNCCNc1ccc(-c2nc(=O)n(CCOC)c3c2oc2ccc(Cl)cc23)cc1	87	10	0.96	
O=c1nc(-c2ccccc2)c2oc3ccccc3c2n1CCN1CCOCC1		> 26000		
CNC1CCN(c2ccc(-c3nc(=O)n(CCOC)c4c3oc3ccc(Cl)cc34)cn2)C1 (centres undefined)	210	40	4.3	
COCCn1c(=O)nc(-c2ccc(N3CCN(C)CC3)nc2)c2oc3ccc(Cl)cc3c21	890	75	> 5.8	cytotoxicity at 72 h [4]: 37%
COCCn1c(=O)nc(-c2ccc(COCCN(C)C)cc2)c2oc3ccccc3c21	> 11000	818		
CCNCc1nc2cc(-c3nc(=O)n(CCOC)c4c3oc3ccc(Br)cc34)ccc2n1C	540	42	> 4.4	cytotoxicity at 72 h [4]: 20%
COCCn1c(=O)nc(-c2ccc(N3CCN(C)CC3)cc2)c2oc3ccc(Cl)cc3c21	430	24	> 4.5	cytotoxicity at 72 h [4]: 18%
Cn1c(=O)nc(-c2ccccc2)c2oc3ccccc3c21		> 83000		
NC(=O)C1CCCN1CCn1c(=O)nc(-c2ccccc2)c2oc3ccc(Cl)cc3c21 (centres undefined)	2600	650	> 6.7	
CN1CCc2cc(-c3ccc4oc5c(-c6ccccc6)nc(=O)n(CCN6CCC(F)(F)C6)c5c4c3)ccc2C1	25	20		Papp at 10 µM [5]: 0.55 ×10⁻⁶ cm/s; solubility at 24 h [6]: > 1000 µg/mL; solubility at 24 h [7]: < 0.1 µg/mL; Ratio EC50 [8]: 1.7; Ratio EC50 [9]: 14.8; Ratio EC50 [10]: 4.8; Ratio EC50 [11]: 0.3; Ratio EC50 [13]: 7.3; Ratio CC50/EC50 [14]: >46; half-life at 1 µM [15]: 19 min; half-life at 1 µM [16]: 6 min; logD at 24 h [17]: 3.9

Further lines, with some results ahead:

EC50 [2] [nM]	IC50 [3] [nM]	SMILES	CC50 at 72 h [1] [µM]	other results
3600	1200	COCCn1c(=O)nc(-c2ccc(NC(=O)CN(C)C)cc2)c2oc3ccccc3c21	> 11	cytotoxicity at 72 h [4]: 15%
4400	1400	COCCn1c(=O)nc(-c2ccc(NC(=O)C(C)N(C)C)cc2)c2oc3ccccc3c21 (centres undefined)	> 11	cytotoxicity at 72 h [4]: 14%
550	46	CCNCC(=O)Nc1ccc(-c2nc(=O)n(CCOC)c3c2oc2ccc(Cl)cc23)cc1	3	
300	34	CCNCC(=O)Nc1ccc(-c2nc(=O)n(CCOC)c3c2oc2ccc(-c4ccc(CO)cc4)cc23)cc1	> 1.3	
94	12	CCNCC(=O)Nc1ccc(-c2nc(=O)n(CCOC)c3c2oc2ccc(-c4ccc(CN(C)C)cc4)cc23)cc1	3.9	
88	8.6	CCNCC(=O)Nc1ccc(-c2nc(=O)n(CCOC)c3c2oc2cc(-c4ccc5c(c4)CCN(C)C5)ccc23)cc1	2.1	
200	27	CCNCC(=O)Nc1ccc(-c2nc(=O)n(CCOC)c3c2oc2ccc(-c4cccnc4)cc23)cc1	> 5.1	cytotoxicity at 72 h [4]: 33%
360	33	CCNCC(=O)Nc1ccc(-c2nc(=O)n(CCOC)c3c2oc2ccc(-c4ccccc4)cc23)cc1	2.3	
53	7.4	CCNCC(=O)Nc1ccc(-c2nc(=O)n(CCOC)c3c2oc2cc(-c4ccc(CN(C)C)cc4)ccc23)cc1	1	
1600	3100	CN(C)CC(=O)Nc1ccc(-c2nc(=O)n(C)c3c2oc2ccccc23)cc1	7.7	
> 9300	945	COCCn1c(=O)nc(-c2ccc(C(=O)NCCN(C)C)cc2)c2oc3ccccc3c21		
14000	630	COCCn1c(=O)nc(-c2ccc(OCCN(C)C)cc2)c2oc3ccccc3c21		
680	73	CCNCC(=O)Nc1ccc(-c2nc(=O)n(CCOC)c3c2oc2ccccc23)cc1	5.1	
2400	120	COCCn1c(=O)nc(-c2ccc(NCCN3CCCC3)cc2)c2oc3ccccc3c21	> 7.4	
1100	390	COCCn1c(=O)nc(-c2ccc(NC(=O)CN3CCCC3)cc2)c2oc3ccccc3c21	5.95	
